Calls of active or inactive are those of the source. No rule for the calls is given here. Numbered stars: 1 amine (or outer) side, 2 acyl side, 3 side chain; on linkers, the order of the positions; unused ones are H or OH. Square brackets hold non-standard residues; d marks the D form. Peptide text beside a SMILES is read from it. X1 = CN1CCC(COc2ccc3oc4c(N(CC(=O)[*:2])[*:1])c5ccccc5nc4c3c2)CC1
How the values were obtained:
[1] = species: Homo sapiens; test: Binding affinity to biotin-labeled human wild type internal ribosome entry site A RNA G-quadruplex by SPR analysis
[2] = species: Homo sapiens; test: Binding affinity to biotin-labeled human 5'-UGAUGAGUGUGAGGAGGA-3' RNA G-quadruplex by SPR analysis
[3] = Binding affinity to biotin-labeled DNA hairpin (unknown origin) by SPR analysis

Structure (SMILES)	Activity [1]	Activity [2]	Activity [3]
COc1ccc2cc3[n+](cc2c1NCCCCCCN)CCc1cc2c(cc1-3)OCO2	Active	–	–
CN(C)CCCNc1c2ccccc2nc2c1oc1c(OCCN(C)C)cccc12	Active	–	–
CCN(CC)CCCNc1c2ccccc2[n+](C)c2c1oc1ccc(OCC[N+]3(C)CCCCC3)cc12	Active	Active	Active
CN(C)CCCNc1c2ccccc2nc2c1oc1ccc(OCC3CCN(C)CC3)cc12	Active	–	–
CN(C)CCCNC(=O)COc1ccc2oc3c(NCCCN(C)C)c4ccccc4[n+](C)c3c2c1	Active	Active	Active
CCN(CC)CCCNc1c2ccccc2[n+](C)c2c1oc1ccc(OCC[N+](C)(C)C)cc12	Active	Active	Active
CN1CCC(COc2ccc3oc4c(NCC(=O)NC(CCCCN)C(=O)NC(CCCNC(=N)N)C(=O)O)c5ccccc5nc4c3c2)CC1 (configuration not stated)	Active	–	–
CN1CCC(COc2ccc3oc4c(NCC(=O)NCC(=O)NC(CCCNC(=N)N)C(=O)NC(Cc5c[nH]cn5)C(=O)O)c5ccccc5nc4c3c2)CC1 (configuration not stated)	Active	–	–
C[n+]1c2ccccc2c(NCC(=O)NCC(=O)NC(Cc2c[nH]cn2)C(=O)O)c2oc3ccccc3c21 (configuration not stated)	Active	–	–
C[n+]1c2ccccc2c(NCCCN2CCOCC2)c2oc3ccc(OCC[N+](C)(C)C)cc3c21	Active	Active	Active
CCN(CC)CCCNc1c2ccccc2[n+](C)c2c1oc1ccc(OCCC[N+](C)(C)C)cc12	Active	Active	Active
CN1CCC(COc2ccc3oc4c(NCC(=O)NCC(=O)NC(CCCNC(=N)N)C(=O)O)c5ccccc5nc4c3c2)CC1 (configuration not stated)	Active	–	–
C[n+]1c2ccccc2c(NCCN2CCCCC2)c2oc3ccc(OCC4CC[N+](C)(C)CC4)cc3c21	Active	Active	Active
COc1ccc2cc3[n+](cc2c1OCCC[n+]1cccc(F)c1)CCc1cc2c(cc1-3)OCO2	Active	–	–
COc1ccc2cc3[n+](cc2c1NCCN1CCOCC1)CCc1cc2c(cc1-3)OCO2	Active	–	–
CN(C)CCCNc1c2ccccc2nc2c1oc1ccc(OCCCN(C)C)cc12	Active	–	–
C[n+]1c2ccccc2c(NCCN2CCOCC2)c2oc3ccc(OCC[N+]4(C)CCOCC4)cc3c21	Active	Active	Active
CCN(CC)CCOc1ccc(Nc2nc(-c3ccccc3NC(=O)CCCl)nc3ccccc23)cc1	Active	–	–
COc1ccc2cc3[n+](cc2c1NCCO)CCc1cc2c(cc1-3)OCO2	Active	–	–
CN1CCC(COc2ccc3oc4c(NCC(=O)NC(Cc5c[nH]cn5)C(=O)NC(CCCNC(=N)N)C(=O)O)c5ccccc5nc4c3c2)CC1 (configuration not stated)	Active	–	–
CN(C)CCNc1c2ccccc2[n+](C)c2c1oc1ccc(OCC[N+]3(C)CCOCC3)cc12	Active	Active	Active
CN1CCC(COc2ccc3oc4c(NCC(=O)NCC(=O)NC(CCCNC(=N)N)C(=O)NC(Cc5c[nH]c6ccccc56)C(=O)O)c5ccccc5nc4c3c2)CC1 (configuration not stated)	Active	–	–
CN1CCC(COc2ccc3oc4c(NCC(=O)NCC(=O)NC(CCCNC(=N)N)C(=O)NC(Cc5ccc(O)cc5)C(=O)O)c5ccccc5nc4c3c2)CC1 (configuration not stated)	Active	–	–
COc1ccc2cc3[n+](cc2c1NCCCN1CCCC1)CCc1cc2c(cc1-3)OCO2	Active	Active	Active

Structure (SMILES)	Activity [1]	Activity [2]	Activity [3]
CN(C)CCNc1c2ccccc2[n+](C)c2c1[nH]c1cc(F)c(F)cc12	Active	–	–
CCN(CC)CCCNc1c2ccccc2[n+](C)c2c1oc1ccc(OCC(=O)NCCCN(C)C)cc12	Active	Active	Active
C[n+]1c2ccccc2c(NCC(=O)NC(CCCNC(=N)N)C(=O)O)c2oc3ccccc3c21 (configuration not stated)	Active	–	–
C[n+]1c2ccccc2c(NCCN2CCCCC2)c2oc3ccc(OCC[N+](C)(C)C)cc3c21	Active	Active	Active
COc1ccc2cc3[n+](cc2c1OCCCCCC[n+]1ccccc1)CCc1cc2c(cc1-3)OCO2	Active	–	–
CN1CCC(COc2ccc3oc4c(NCC(=O)NCC(=O)NC(CCCNC(=N)N)C(=O)NC(Cc5ccccc5)C(=O)O)c5ccccc5nc4c3c2)CC1 (configuration not stated)	Active	–	–
COc1ccc2cc3[n+](cc2c1OCCC[n+]1ccccc1)CCc1cc2c(cc1-3)OCO2	Active	–	–
COc1ccc2cc3[n+](cc2c1OCCC[n+]1cccc(C)c1)CCc1cc2c(cc1-3)OCO2	Active	–	–
COc1ccc2cc3[n+](cc2c1NCCCN(C)C)CCc1cc2c(cc1-3)OCO2	Active	Active	Active
CN1CCC(COc2ccc3oc4c(NCC(=O)NCC(=O)NC(CCCNC(=N)N)C(=O)NC(CCC(=O)O)C(=O)O)c5ccccc5nc4c3c2)CC1 (configuration not stated)	Active	–	–
C[n+]1c2ccccc2c(NCC(=O)NCC(=O)NC(CCCNC(=N)N)C(=O)O)c2oc3ccccc3c21 (configuration not stated)	Active	Active	Active
CCN(CC)CCNc1c2ccccc2[n+](C)c2c1[nH]c1ccccc12	Active	Active	Active
COc1ccc2cc3[n+](cc2c1OCCN)CCc1cc2c(cc1-3)OCO2	Active	–	–
C[n+]1c2ccccc2c(NCCN2CCCCC2)c2oc3ccc(OCC(=O)NCCN4CCCCC4)cc3c21	Active	Active	Active
CN(C)CCCCOc1cccc2c1oc1c(NCCCN(C)C)c3ccccc3nc12	Active	–	–
C[n+]1c2ccccc2c(NCCCN2CCCCC2)c2oc3ccc(OCC(=O)NCCCN4CCCCC4)cc3c21	Active	–	–
COc1ccc2cc3[n+](cc2c1OCCCn1cc[n+](C)c1)CCc1cc2c(cc1-3)OCO2	Active	–	–
CCN(CC)CCNc1c2ccccc2[n+](C)c2c1oc1ccc(OCC[N+]3(C)CCCCC3)cc12	Active	Active	Active
C[n+]1c2ccccc2c(NCCCN2CCOCC2)c2oc3ccc(OCC(=O)NCCN4CCOCC4)cc3c21	Active	–	–
COc1ccc2cc3[n+](cc2c1OCCCN)CCc1cc2c(cc1-3)OCO2	Active	–	–
CN1CCC(COc2ccc3oc4c(NCC(=O)NCC(=O)NC(CCCNC(=N)N)C(=O)NC(CCCNC(=N)N)C(=O)NCC(=O)O)c5ccccc5nc4c3c2)CC1 (configuration not stated) (H-[X1]GRRG-OH; configuration not given here)	Active	Active	Active
C[n+]1c2ccccc2c(NCCCO)c2[nH]c3ccccc3c21	Active	Active	Active
COc1ccc2cc3[n+](cc2c1NCCN(C)C)CCc1cc2c(cc1-3)OCO2	Active	–	–
C[n+]1c2ccccc2c(NCC(=O)NC(Cc2ccccc2)C(=O)NC(CCCNC(=N)N)C(=O)O)c2oc3ccccc3c21 (configuration not stated)	Active	–	–

Structure (SMILES)	Activity [1]	Activity [2]	Activity [3]
C[n+]1c2ccccc2c(NCC(=O)NCC(=O)NC(CCCCN)C(=O)O)c2oc3ccccc3c21 (configuration not stated)	Active	–	–
CN1CCC(COc2ccc3oc4c(NCC(=O)NCC(=O)NCC(=O)O)c5ccccc5nc4c3c2)CC1	Active	–	–
CCN(CC)CCOc1ccc(Nc2nc(-c3ccccc3N)nc3ccccc23)cc1	Active	–	–
CN1CCC(COc2ccc3oc4c(NCC(=O)NCC(=O)NC(CCCNC(=N)N)C(=O)NC(Cc5c[nH]cn5)C(=O)NCC(=O)O)c5ccccc5nc4c3c2)CC1 (configuration not stated) (H-[X1]GRHG-OH; configuration not given here)	Active	–	–
C[n+]1c2ccccc2c(NCC(=O)NC(CCCCN)C(=O)NC(CCCNC(=N)N)C(=O)O)c2oc3ccccc3c21 (configuration not stated)	Active	–	–
CN(C)CCCNc1c2ccccc2[n+](C)c2c1[nH]c1ccccc12	Active	–	–
CN(C)CCCNc1c2ccccc2nc2c1oc1ccc(OCCN(C)C)cc12	Active	–	–
CN(C)CCNC(=O)COc1ccc2oc3c(NCCN(C)C)c4ccccc4[n+](C)c3c2c1	Active	–	–
COc1ccc2cc3[n+](cc2c1OCCCn1ccc(N)nc1=O)CCc1cc2c(cc1-3)OCO2	Active	–	–
COc1ccc2cc3[n+](cc2c1NCCN1CCCCC1)CCc1cc2c(cc1-3)OCO2	Active	–	–
O=C1/C(=C\c2ccc(N3CCOCC3)cc2)CC/C1=C\c1cccnc1	Active	–	–
COc1ccc2cc3[n+](cc2c1OCCCCC[n+]1ccccc1)CCc1cc2c(cc1-3)OCO2	Active	–	–
CN1CCC(COc2ccc3oc4c(NCC(=O)NCC(=O)NC(Cc5c[nH]cn5)C(=O)O)c5ccccc5nc4c3c2)CC1 (configuration not stated)	Active	–	–
CN(C)CCNc1c2ccccc2nc2c1oc1ccc(OCCN(C)C)cc12	Active	–	–
C[n+]1c2ccccc2c(NCCO)c2[nH]c3ccccc3c21	Active	–	–
C[n+]1c2ccccc2c(NCCN2CCOCC2)c2oc3ccc(OCC(=O)NCCN4CCOCC4)cc3c21	Active	–	–
COc1ccc2cc3[n+](cc2c1OCCCOc1ccncc1)CCc1cc2c(cc1-3)OCO2	Active	–	–
CN1CCC(COc2ccc3oc4c(NCC(=O)NCC(=O)NC(CCCCN)C(=O)O)c5ccccc5nc4c3c2)CC1 (configuration not stated)	Active	–	–
CN(C)CCCNc1c2ccccc2nc2c1oc1cc(OCCN(C)C)ccc12	Active	–	–
C[n+]1c2ccccc2c(NCCCN2CCOCC2)c2oc3ccc(OCC[N+]4(C)CCCCC4)cc3c21	Active	–	–
CC(NC(=O)C(CCCNC(=N)N)NC(=O)CNC(=O)CNc1c2ccccc2nc2c1oc1ccc(OCC3CCN(C)CC3)cc12)C(=O)O (configuration not stated)	Active	–	–
CN1CCC(COc2ccc3oc4c(NCC(=O)NCC(=O)NC(CCCNC(=N)N)C(=O)NC(CCC(N)=O)C(=O)O)c5ccccc5nc4c3c2)CC1 (configuration not stated)	Active	–	–
COc1ccc2cc3[n+](cc2c1OCCC[n+]1ccc(N(C)C)cc1)CCc1cc2c(cc1-3)OCO2	Active	–	–
